Results on 24 compounds are retold here after PubChem BioAssay (NCI).

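A five-concentration, 48-hour dose response in 96-well plates underlies each endpoint, interpolated linearly between surrounding concentrations. Abbreviation: GI50, concentration required for 50% inhibition of growth. TGI marks complete inhibition of growth.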 *1 amine or outer side, *2 acyl side, *3 side chain or, on linkers, in order; H or OH if unused. Where a SMILES comes first, the peptide text is derived from it. [ ]: non-standard residue; d: D form. X32 = C[C@H](N[*:1])C(=O)C(C)(C)C(=O)[*:2]; Hmpa(2S,3S) = CC[C@H](C)[C@H](O)C(=O)O; NMeY = CN[C@@H](Cc1ccc(O)cc1)C(=O)O; NMeL = CN[C@@H](CC(C)C)C(=O)O; NMeV = CN[C@H](C(=O)O)C(C)C; βAla = NCCC(=O)O

Holding throughout (assay): NCI anticancer screen, dose series, 48 h
Assay [1] concerns T-47D breast.
Assay [2] deals with MCF7 breast.
Assay [3] deals with MDA-N.
Assay [4] has as its system NCI-H23 lung.
Assay [5] concerns IGROV1 ovarian.
The subject of assay [6] is U251 CNS.
Assay [7] has as its system MALME-3M melanoma.
Assay [8] relates to 786-0 renal.
The test system of assay [9] is OVCAR-3 ovarian.
Assay [10] deals with SW-620 colon.
In assay [11] the test system is HL-60(TB) leukemia.

For `CCCCn1c2c(n(CCCC)c1=S)-c1c(n(CCCC)c(=S)n1CCCC)SSc1c(n(CCCC)c(=S)n1CCCC)-c1c(n(CCCC)c(=S)n1CCCC)SSc1c(n(CCCC)c(=S)n1CCCC)-c1c(n(CCCC)c(=S)n1CCCC)SS2`, the TGI was 9.51 µM in assay [1]; 48 µM in assay [2]; over 46 µM in [3]; over 50 µM in [4]; 8.64 µM in assay [5]; over 50 µM in assay [6]. Besides, the TGI was 6.19 µM in assay [7]; over 50 µM in assay [8]; 14.6 µM in assay [9]; over 14.8 µM in [10]; 4.46 µM in assay [11].

In the case of `Cc1ccc(NC(=O)c2cc(S(=O)(=O)Nc3nc4ncccc4[nH]3)c(SSc3cc(Cl)c(C(=O)Nc4ccc(C)cc4)cc3S(=O)(=O)Nc3nc4ncccc4[nH]3)cc2Cl)cc1`, the TGI in assay [1], in assay [2], in [3], in assay [4], in assay [5] and in assay [6] was over 100 µM in each case. Besides, the TGI in assay [7], in [8], in assay [9], in assay [10] and in [11] was over 100 µM each time.

As for `CCOC(=O)NC(Nc1ccc(C(=O)OCC)cc1)(C(F)(F)F)C(F)(F)F`, the TGI in [1], in [2], in assay [3], in assay [4], in [5] and in assay [6] was over 100 µM in each case. For the same compound, the TGI in assay [7], in [8], in assay [9], in [10] and in [11] was over 100 µM each time.

For `CC(=O)OCC1OC(n2c(-c3ccc(C)cc3)cc(-c3ccccc3)c(C#N)c2=S)C(OC(C)=O)C(OC(C)=O)C1OC(C)=O` (centres undefined), the TGI in assay [1], in assay [2], in assay [3], in [4], in assay [5] and in assay [6] was over 100 µM in each case. The TGI in assay [7], in assay [8], in [9], in [10] and in [11] was over 100 µM throughout.

Take `N#Cc1c(N)nc(Sc2ccccc2N)c(C#N)c1-c1ccc(Cl)cc1`: the TGI was 4.24 µM in assay [1]; 29.6 µM in [2]; 40.2 µM in assay [3]; over 63 µM in assay [4]; 33.6 µM in [5]; 24.5 µM in [6]. The TGI is 27.7 µM in assay [7]; 42.7 µM in assay [8]; 31.9 µM in assay [9]; over 100 µM in assay [10]; over 100 µM in [11].

Turning to `O=C(NCCCCCCNC(=O)c1cc(-c2ccccc2)nc2ccccc12)c1cc(-c2ccccc2)nc2ccccc12`, the TGI in assay [1], in assay [2], in assay [3], in [4], in [5] and in [6] was over 100 µM each time. In addition, the TGI in [7], in [8], in [9], in [10] and in [11] was over 100 µM throughout.

`CCCCCCCCCCCCC(O)[C@H]1CC[C@H](C(O)CCCCCC(=O)CCCCC2CC(C(C)=O)C(=O)O2)O1` (some centres undefined): the GI50 in [1] is 3.84 µM; in [2], 1.38 µM; in [3], 7.67 µM; in assay [4], 1.72 µM; in assay [5] it was 4.3 µM; in assay [6], 3.99 µM. Further, the GI50 is 2.25 µM in assay [9], 4.08 µM in assay [10] and 2.68 µM in assay [11]. The TGI in assay [1] is over 41.5 µM; in assay [2], over 51.6 µM; in [3] it was 23.2 µM; in [4], 63.8 µM; in assay [5], 71.6 µM; in [6], over 62.5 µM. The TGI was 23.7 µM in assay [7]; 52.1 µM in assay [8]; 19.3 µM in assay [9]; over 100 µM in [10]; over 29.5 µM in assay [11].

Regarding `CC(=O)Nc1ccc(C2SCc3nc4ccccc4n32)cc1` (centres undefined), the TGI in assay [1], in [2], in assay [3], in [4], in assay [5] and in assay [6] was over 100 µM each time. For the same compound, the TGI in assay [7] was over 86.8 µM; in assay [8], over 100 µM; in assay [9], over 100 µM; in assay [10] it was over 100 µM; in [11], over 100 µM.

On to `Cc1ccc(S(=O)(=O)N2CCCSCC2)cc1`, for which the TGI in assay [1], in [2], in assay [3], in assay [4], in assay [6] and in [10] was over 100 µM in each case.

For `Cc1cc(=O)oc2c(CNC(Cc3ccccc3)C(=O)O)c(O)ccc12` (centres undefined), the TGI in [1], in assay [2], in assay [3], in [4], in assay [5] and in assay [6] was over 100 µM throughout. The TGI in assay [7], in assay [8], in assay [9], in [10] and in [11] was over 100 µM each time.

For `CC1=C(C)Cc2c(O)ccc(O)c2C1`, the TGI in assay [1] was 63.4 µM; in [2], 51.3 µM; in assay [3], 30.7 µM; in assay [4] it was over 100 µM; in assay [6], 34.2 µM; in [7], 31.6 µM. Moreover, the TGI in assay [9] stood at 43.2 µM; in assay [10] it was 37.6 µM; in assay [11] it was 23.5 µM.

Take `CC[C@H](C)[C@@H]1OC(=O)CCNC(=O)[C@@H](C)NC(=O)C(C)(C)C(=O)[C@H](C)NC(=O)[C@H](Cc2ccc(OC)cc2)N(C)C(=O)[C@H](C(C)C)N(C)C(=O)CNC(=O)[C@H](CC(C)C)N(C)C(=O)CNC1=O` (cyclo(G[NMeL]G[NMeV][NMeY](Me)[X32][dA][βAla][Hmpa(2S,3S)])): the TGI in assay [1] is over 50 µM; in [2], over 50 µM; in assay [3], over 31.8 µM; in assay [4], over 50 µM; in assay [5], 4.16 µM; in [6], 2.62 µM. Further, the TGI in assay [7] is 10.3 µM; in assay [8], 12.7 µM; in [9] it was 14.3 µM; in [10], over 50 µM.

`CCOC(=O)c1ccc(N=c2sc3ccccc3nc2Nc2ccc(C(=O)OCC)cc2)cc1`: the TGI in assay [1], in assay [3], in assay [4], in assay [5], in assay [6] and in assay [7] was over 100 µM each time. The TGI in [8] was 64.8 µM; in [10], over 100 µM; in [11] it was over 100 µM.

As for `Cc1nc2c(=O)n(C)ncc2[nH]1`, the TGI in assay [1], in assay [2], in assay [3], in [4], in assay [5] and in assay [6] was over 100 µM in each case. Besides, the TGI in assay [8], in [9], in assay [10] and in [11] was over 100 µM throughout.

With `O=C(O)CN1C(=O)C(Cc2ccc(O)cc2)N=C(c2cccc(O)c2)c2ccccc21` (centres undefined), the TGI in assay [1] is over 100 µM; in assay [2], over 100 µM; in assay [3], 26 µM; in assay [5], over 100 µM; in assay [6], over 100 µM; in assay [7], over 100 µM. For the same compound, the TGI in [8], in [9], in [10] and in assay [11] was over 100 µM in each case.

As for `CCOC(=O)c1c(N2CCOCC2)[nH]c(=O)c(C(c2ccco2)c2c(O)c(C(=O)OCC)c(N3CCOCC3)[nH]c2=O)c1O`, the TGI in [1], in assay [2], in assay [3], in assay [4], in [6] and in assay [7] was over 100 µM throughout. The TGI in [8], in assay [9] and in assay [10] was over 100 µM throughout.

Turning to `BrC(c1cccc2ccccc12)c1cccc2ccccc12`, the TGI in assay [1] is over 100 µM; in [3], 32.6 µM; in assay [4] it was 43 µM; in assay [5] it was 31.8 µM; in assay [6], 30.6 µM; in [7], 21.1 µM. Also, the TGI in assay [8] stood at 28.2 µM; in [9], 24.2 µM; in assay [10], 45.5 µM; in [11], 51.4 µM.

`NC(=S)N/N=C\c1nccc2ccccc12`: the TGI is over 100 µM in assay [1]; 11.9 µM in assay [2]; over 100 µM in [3]; over 100 µM in [4]; 17.4 µM in [5]; over 58.6 µM in assay [6]. Besides, the TGI in [7] is over 23.1 µM; in assay [9], over 100 µM; in assay [10] it was over 100 µM; in assay [11] it was 40.4 µM.

With `Cc1cn(CC2=NCC(C)N2)c(=O)[nH]c1=O` (centres undefined), the TGI in assay [1], in assay [2], in [3], in assay [4], in assay [5] and in assay [6] was over 100 µM each time. Further, the TGI in assay [7], in assay [8] and in assay [10] was over 100 µM throughout.

In the case of `Oc1ccc2c(c1)-c1c(c3ccccc3n1CCN1CCOCC1)CC2`, the TGI in assay [1] was over 100 µM; in assay [2] it was over 100 µM; in assay [3] it was over 100 µM; in assay [4], 69.1 µM; in [5] it was over 100 µM; in assay [6] it was over 100 µM. The TGI in [7], in assay [8], in assay [9] and in assay [11] was over 100 µM in each case.

As to `O=C1Oc2cc(O)cc(/C=C/c3ccc(O)cc3)c2[C@@]12c1c(O)cc(O)cc1OC2c1cccc(O)c1` (some centres undefined), the TGI in assay [1] was over 100 µM; in [2], over 100 µM; in [3], 93.2 µM; in assay [4], 73.4 µM; in [5] it was 31 µM; in [6] it was over 100 µM. Further, the TGI is over 100 µM in [7], 59.7 µM in [8], over 100 µM in [9] and 97.9 µM in assay [11].

With `COc1ccc2c(c1)CCc1c-2n(CCN2CCCCC2)c2ccc(OC)cc12`, the TGI in assay [1], in assay [2], in [3], in assay [4], in assay [5] and in [6] was over 100 µM each time. Besides, the TGI in assay [7], in assay [8], in [9] and in assay [10] was over 100 µM in each case.

Turning to `O=c1/c(=C/c2ccc(-c3ccc(Cl)cc3Cl)o2)sc2n1[C@@H](c1ccc(Cl)cc1)C=C(c1cc(F)c(Cl)cc1Cl)N=2`, the TGI in assay [1], in assay [2], in assay [3], in assay [4], in assay [5] and in assay [6] was over 100 µM in each case. Further, the TGI in assay [7], in [8] and in assay [10] was over 100 µM in each case.

Consider `N#Cc1ccc(-n2c3ccccc3c3ccc4c(c32)C(=O)C=CC4=O)cc1`, for which the TGI in [1] was over 100 µM; in assay [2], 8.04 µM; in assay [3], 13.1 µM; in assay [4], 24.4 µM; in [5], 16.2 µM; in assay [6] it was 17.8 µM. Also, the TGI in assay [8] was 3.16 µM; in assay [9], 11.1 µM; in assay [10] it was 3.31 µM; in assay [11], over 100 µM.
